Legend:
[1] = system: MCF7; experiment: CCK-8 proliferation, MCF7 (MCF-7); type: cell-based; conditions: Homo sapiens, MCF7; CCK-8; read-out: Inhibitory activity (IC50) on tumor cell proliferation, MCF7
Summary of the method: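 Cells seeded, then after 24 h treated with 10 concentrations (top 10 µM, 5-fold serial dilution) for a line-specific time at 37°C, 5% CO2. Viability read by CCK-8; IC50 fitted from growth-inhibition curves.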

[2] = biological target: T1, CDK4 (Homo sapiens, UniProt P11802); experiment: Western blot degradation of CDK4 (MDA-MB-231 Cell); type: cell-based; conditions: Table D3
T1 construct: evaluate the effects of the compounds of the present disclosure on the expression of target proteins in cells; endogenous in cells; host or cells: MDA-MB-231
T1 sequence (P11802 whole entry): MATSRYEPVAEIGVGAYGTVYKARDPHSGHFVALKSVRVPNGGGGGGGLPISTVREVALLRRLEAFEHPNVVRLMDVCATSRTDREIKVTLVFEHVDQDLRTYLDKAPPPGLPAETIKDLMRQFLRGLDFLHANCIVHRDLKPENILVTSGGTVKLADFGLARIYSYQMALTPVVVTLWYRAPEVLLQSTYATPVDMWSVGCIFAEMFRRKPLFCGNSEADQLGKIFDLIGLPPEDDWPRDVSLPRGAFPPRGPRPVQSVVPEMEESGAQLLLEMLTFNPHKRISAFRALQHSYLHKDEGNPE
Experimental: (§1) Conventional Western blot assay was performed to evaluate the effects of the compounds of the present disclosure on the expression of target proteins in cells.
(§2) (1) Cell Seeding and Protein Harvesting: The selected cells were processed according to the cell seeding procedure and protein harvesting procedure in Table III-2. Table III-2 Cell Seeding and Protein Harvesting Procedures
(§3) (2) To the collected supernatant, 5X SDS sample loading buffer was added, followed by denaturation at 95°C for 5 minutes. The denatured samples were then separated by SDS-PAGE electrophoresis on a polyacrylamide gel. Proteins were transferred to a nitrocellulose membrane (0.45 µm NC membrane), blocked with blocking buffer at room temperature for 1 hour, and subjected to antibody incubation and development procedures according to the antibody manufacturer's instructions (Cell Signaling Technology).
(§4) Half-Maximal Degradation Concentration value (the drug concentration required for degrading proteins by 50%, abbreviated as DC50) reads method: comparing the grayscale values of Western blot bands from drug-treated samples with those from blank DMSO-treated controls, and identifying the drug concentration range at which the grayscale value is half that of the DMSO-treated control bands.
(§5) DC50 values can be calculated using ImageJ software to measure grayscale values of Western blot bands from drug-treated samples. The concentration-response curve is fitted to estimate the drug concentration corresponding to half the grayscale value.
(§6) Target protein remaining (%) refers to the percentage of target protein remaining in hPBMC cells after treatment with protein degrader compounds.
(§7) Calculation method for target protein remaining (%): Use ImageJ software to measure grayscale values of Western blot bands from drug (protein degrader)-treated samples. The grayscale value of drug-treated bands is divided by that of internal control protein bands, and the resulting quotient is normalized to obtain the relative percentage of remaining target protein after protein degrader treatment.
(§8) Target protein degradation rate (%) = 100% - target protein remaining (%).

[3] = biological target: T2, CDK6 (Homo sapiens, UniProt Q00534); experiment: Western blot degradation of CDK6 (MDA-MB-231 Cell); type: cell-based; conditions: Table D3
T2 construct: evaluate the effects of the compounds of the present disclosure on the expression of target proteins in cells; endogenous in cells; host or cells: MDA-MB-231
T2 sequence (Q00534 whole entry): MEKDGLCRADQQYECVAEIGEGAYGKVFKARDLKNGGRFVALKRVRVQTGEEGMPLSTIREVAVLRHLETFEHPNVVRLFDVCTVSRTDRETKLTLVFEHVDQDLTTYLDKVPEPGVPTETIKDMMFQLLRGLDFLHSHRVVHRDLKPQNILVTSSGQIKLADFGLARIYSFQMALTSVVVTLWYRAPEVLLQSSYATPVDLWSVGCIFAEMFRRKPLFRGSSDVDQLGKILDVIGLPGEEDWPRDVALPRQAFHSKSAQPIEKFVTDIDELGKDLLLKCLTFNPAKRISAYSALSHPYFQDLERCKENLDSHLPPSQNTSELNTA
Experimental: as §1, §2, §3, §4, §5, §6, §7, §8

[4] = biological target: T3, human Cereblon WT GST-tagged protein (Homo sapiens, UniProt Q96SW2); experiment: CRBN binding, HTRF (CEREBLON BINDING kit); conditions: Table II-2, CRBN binding screening, HTRF; for inhibition at 0.5 µM: read-out: Inhibition rate (%) at 0.5µM; for inhibition at 2 µM: read-out: Inhibition rate (%) at 2 µM
T3 construct: purchased CISBIO 64BDCRBNPEH
T3 sequence (Q96SW2 whole entry): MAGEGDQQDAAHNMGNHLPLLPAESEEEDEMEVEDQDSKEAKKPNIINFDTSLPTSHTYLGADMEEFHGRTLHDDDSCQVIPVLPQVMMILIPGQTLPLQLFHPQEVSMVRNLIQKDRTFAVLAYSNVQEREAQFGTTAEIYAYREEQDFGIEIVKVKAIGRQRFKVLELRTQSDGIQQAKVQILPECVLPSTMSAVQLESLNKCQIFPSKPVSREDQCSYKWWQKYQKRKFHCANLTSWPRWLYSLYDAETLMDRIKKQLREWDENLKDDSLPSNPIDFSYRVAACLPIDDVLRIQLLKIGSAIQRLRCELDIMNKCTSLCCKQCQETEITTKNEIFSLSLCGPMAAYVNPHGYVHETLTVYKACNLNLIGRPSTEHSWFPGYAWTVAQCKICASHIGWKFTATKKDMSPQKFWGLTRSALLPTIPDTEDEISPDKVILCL
Summary of the method: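 Competitive HTRF: GST-tagged human WT Cereblon mixed with compound, Thalidomide-Re tracer and GST Eu antibody, incubated 3 h at room temperature. Signals read at 620 and 665 nm.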

Row | IC50 [1] [nM] | inhibition at 0.5 µM [4] [%] | inhibition at 2 µM [4] [%] | SMILES | Degradation of substrate protein CDK4 (substrate protein remaining %) [2] | Degradation of substrate protein CDK6 (substrate protein remaining %) [3]
1 | 500 to 1000 |  |  | CC(=O)c1c(C)c2cnc(Nc3ccc(N4CCN(Cc5cccc(NC6CCC(=O)NC6=O)c5)CC4)cn3)nc2n(C2CCCC2)c1=O (stereo not shown) [GT-06580, 3-((3-((4-(6-((6-acetyl-8-cyclopentyl-5-methyl-7-oxo-7,8-dihydropyrido[2,3-d]pyrimidin-2-yl)amino)pyridin-3-yl)piperazin-1-yl)methyl)phenyl)amino)pip eridine-2,6-dione] | B (B is defined as substrate protein remaining % > 80%) | A (A is defined as 0% ≤ substrate protein remaining % ≤ 80%)
2 |  | 20 to 30 | 60 to 80 | CN(C)C(=O)c1cc2cnc(Nc3ccc(N4CCN(Cc5ccc(C6CCC(=O)NC6=O)cn5)CC4)cn3)nc2n1C1CCCC1 (stereo not shown) [GT-07477, 7-cyclopentyl-2-((5-(4-((5-(2,6-dioxopiperidin-3-yl)pyridin-2-yl)methyl)piperazin-1-yl)pyridin-2-yl)amino)-N,N-dimethyl-7H-pyrrolo[2,3-d]pyrimidine-6-carboxamide] | A (A is defined as 0% ≤ substrate protein remaining % ≤ 80%) | A (A is defined as 0% ≤ substrate protein remaining % ≤ 80%)
3 | 100 to 500 |  |  | CC(=O)c1c(C)c2cnc(Nc3ccc(N4CCN(Cc5ccc(C6CCC(=O)NC6=O)cc5)CC4)cn3)nc2n(C2CCCC2)c1=O (stereo not shown) [GT-06575, 3-(4-((4-(6-((6-acetyl-8-cyclopentyl-5-methyl-7-oxo-7,8-dihydropyrido[2,3-d]pyrimidin-2-yl)amino)pyridin-3-yl)piperazin-1-yl)methyl)phenyl)piperidine-2,6-dione] | A (A is defined as 0% ≤ substrate protein remaining % ≤ 80%) | A (A is defined as 0% ≤ substrate protein remaining % ≤ 80%)
4 | 500 to 1000 |  |  | CC(=O)c1c(C)c2cnc(Nc3ccc(N4CCN(Cc5ccc(N6CCC(=O)NC6=O)cn5)CC4)cn3)nc2n(C2CCCC2)c1=O [GT-06578, 1-(6-((4-(6-((6-acetyl-8-cyclopentyl-5-methyl-7-oxo-7,8-dihydropyrido[2,3-d]pyrimidin-2-yl)amino)pyridin-3-yl)piperazin-1-yl)methyl)pyridin-3-yl)dihydropyrimidine-2,4(1H,3H)-dione] | B (B is defined as substrate protein remaining % > 80%) | A (A is defined as 0% ≤ substrate protein remaining % ≤ 80%)
5 |  | 30 to 40 | 60 to 80 | CN(C)C(=O)c1cc2cnc(Nc3ccc(N4CCN(Cc5cc(N6CCC(=O)NC6=O)cnc5F)CC4)cn3)nc2n1C1CCCC1 [GT-07830, 7-cyclopentyl-2-((5-(4-((5-(2,4-dioxotetrahydropyrimidin-1(2H)-yl)-2-fluoropyridin-3-yl)methyl)piperazin-1-yl)pyridin-2-yl)amino)-N,N-dimethyl-7H-pyrrolo[2,3-d]pyrimidine-6-carboxamide] | A (A is defined as 0% ≤ substrate protein remaining % ≤ 80%) | A (A is defined as 0% ≤ substrate protein remaining % ≤ 80%)
6 |  | 53 to 60 | 80 to 100 | CN(C)C(=O)c1cc2cnc(Nc3ccc(N4CCN(Cc5cncc(C6CCC(=O)NC6=O)c5)CC4)cn3)nc2n1C1CCCC1 (stereo not shown) [GT-07479, 7-cyclopentyl-2-((5-(4-((5-(2,6-dioxopiperidin-3-yl)pyridin-3-yl)methyl)piperazin-1-yl)pyridin-2-yl)amino)-N,N-dimethyl-7H-pyrrolo[2,3-d]pyrimidine-6-carboxamide] | A (A is defined as 0% ≤ substrate protein remaining % ≤ 80%) | A (A is defined as 0% ≤ substrate protein remaining % ≤ 80%)
7 |  |  |  | CC(=O)c1c(C)c2cnc(Nc3ccc(N4CCN(Cc5cnc(N6CCC(=O)NC6=O)cn5)CC4)cn3)nc2n(C2CCCC2)c1=O [GT-07827, 1-(5-((4-(6-((6-acetyl-8-cyclopentyl-5-methyl-7-oxo-7,8-dihydropyrido[2,3-d]pyrimidin-2-yl)amino)pyridin-3-yl)piperazin-1-yl)methyl)pyrazin-2-yl)dihydropyrimidine-2,4(1H,3H)-dione] | A (A is defined as 0% ≤ substrate protein remaining % ≤ 80%) | A (A is defined as 0% ≤ substrate protein remaining % ≤ 80%)
8 |  |  |  | CC(=O)c1c(C)c2cnc(Nc3ccc(N4CCN(Cc5cc(N6CCC(=O)NC6=O)cnc5F)CC4)cn3)nc2n(C2CCCC2)c1=O [GT-07832, 1-(5-((4-(6-((6-acetyl-8-cyclopentyl-5-methyl-7-oxo-7,8-dihydropyrido[2,3-d]pyrimidin-2-yl)amino)pyridin-3-yl)piperazin-1-yl)methyl)-6-fluoropyridin-3-yl)dihydropyrimidine-2,4(1H,3H)-dione] | A (A is defined as 0% ≤ substrate protein remaining % ≤ 80%) | A (A is defined as 0% ≤ substrate protein remaining % ≤ 80%)
9 |  |  |  | CN(C)C(=O)c1cc2cnc(Nc3ccc(N4CCN(Cc5ccc(C6CCC(=O)NC6=O)cc5)CC4)cn3)nc2n1C1CCCC1 (stereo not shown) [GT-06339, 7-cyclopentyl-2-((5-(4-(4-(2,6-dioxopiperidin-3-yl)benzyl)piperazin-1-yl)pyridin-2-yl)amino)-N,N-dimethyl-7H-pyrrolo[2,3-d]pyrimidine-6-carboxamide] | A (A is defined as 0% ≤ substrate protein remaining % ≤ 80%) | A (A is defined as 0% ≤ substrate protein remaining % ≤ 80%)
10 |  |  |  | CN(C)C(=O)c1cc2cnc(Nc3ccc(N4CCC(N(C)Cc5cccc(NC6CCC(=O)NC6=O)c5)CC4)cn3)nc2n1C1CCCC1 (stereo not shown) [GT-06495, 7-cyclopentyl-2-((5-(4-((3-((2,6-dioxopiperidin-3-yl)amino)benzyl)(methyl)amino)piperidin-1-yl)pyridin-2-yl)amino)-N,N-dimethyl-7H-pyrrolo[2,3-d]pyrimidine-6-carboxamide] | A (A is defined as 0% ≤ substrate protein remaining % ≤ 80%) | A (A is defined as 0% ≤ substrate protein remaining % ≤ 80%)
11 |  | 30 to 40 | 60 to 80 | CN(C)C(=O)c1cc2cnc(Nc3ccc(N4CCN(Cc5cncc(N6CCC(=O)NC6=O)c5)CC4)cn3)nc2n1C1CCCC1 [GT-07476, 7-cyclopentyl-2-((5-(4-((5-(2,4-dioxotetrahydropyrimidin-1(2H)-yl)pyridin-3-yl)methyl)piperazin-1-yl)pyridin-2-yl)amino)-N,N-dimethyl-7H-pyrrolo[2,3-d]pyrimidine-6-carboxamide] | A (A is defined as 0% ≤ substrate protein remaining % ≤ 80%) | A (A is defined as 0% ≤ substrate protein remaining % ≤ 80%)
12 |  |  |  | CN(C)C(=O)c1cc2cnc(Nc3ccc(N4CCN(Cc5ccc(N6CCC(=O)NC6=O)nc5)CC4)cn3)nc2n1C1CCCC1 [GT-06343, 7-cyclopentyl-2-((5-(4-((6-(2,4-dioxotetrahydropyrimidin-1(2H)-yl)pyridin-3-yl)methyl)piperazin-1-yl)pyridin-2-yl)amino)-N,N-dimethyl-7H-pyrrolo[2,3-d]pyrimidine-6-carboxamide] | A (A is defined as 0% ≤ substrate protein remaining % ≤ 80%) | A (A is defined as 0% ≤ substrate protein remaining % ≤ 80%)
13 |  |  |  | CC(=O)c1c(C)c2cnc(Nc3ccc(N4CCN(Cc5ccc(N6CCC(=O)NC6=O)nc5)CC4)cn3)nc2n(C2CCCC2)c1=O [GT-06579, 1-(5-((4-(6-((6-acetyl-8-cyclopentyl-5-methyl-7-oxo-7,8-dihydropyrido[2,3-d]pyrimidin-2-yl)amino)pyridin-3-yl)piperazin-1-yl)methyl)pyridin-2-yl)dihydropyrimidine-2,4(1H,3H)-dione] | B (B is defined as substrate protein remaining % > 80%) | A (A is defined as 0% ≤ substrate protein remaining % ≤ 80%)
